From PMC9234961 (Journal of Medicinal Chemistry, 2022)
Values joined by “and” are separate entries in the source; they are usually repeats but may differ in a detail not shown here. Equal entries are not always repeated. Where two headings read alike, the source gives them in different places.

Key:
kinases (468) [1] = molecular target: kinases (468) (Homo sapiens, UniProt Q99558); details: NIK (MAP3K14); 1000 nM
kinases (468) [2] = tested on: kinases (468)
kinases (468) [3] = molecular target: kinases (468) (Homo sapiens, UniProt Q00532); details: CDKL1; 1000 nM
kinases (468) [4] = molecular target: kinases (468) (Homo sapiens, UniProt Q02750); details: MEK1 (MAP2K1); 1000 nM
kinases (468) [5] = molecular target: kinases (468) (Homo sapiens, UniProt Q99755); details: PIP5K1A; 1000 nM
kinases (468) [6] = molecular target: kinases (468) (Homo sapiens, UniProt Q9P1W9); details: PIM2; 1000 nM
kinases (468) [7] = molecular target: kinases (468) (Homo sapiens, UniProt Q16512); details: PKN1; 1000 nM
kinases (468) [8] = molecular target: kinases (468) (Homo sapiens, UniProt P10721); details: 1000 nM
kinases (468) [9] = molecular target: kinases (468) (Homo sapiens, UniProt Q9HC98); details: NEK6; 1000 nM
kinases (468) [10] = molecular target: kinases (468) (Homo sapiens, UniProt P36896); details: ACVR1B; 1000 nM
kinases (468) [11] = molecular target: kinases (468) (Homo sapiens, UniProt P45985); details: MEK4 (MAP2K4); 1000 nM
kinases (468) [12] = molecular target: kinases (468) (Homo sapiens, UniProt O95747); details: OSR1 (OXSR1); 1000 nM
kinases (468) [13] = molecular target: kinases (468) (Homo sapiens, UniProt Q02779); details: MLK2 (MAP3K10); 1000 nM
kinases (468) [14] = molecular target: kinases (468) (Homo sapiens, UniProt Q15208); details: NDR1 (STK38); 1000 nM
kinases (468) [15] = molecular target: kinases (468) (Homo sapiens, UniProt P51451); details: BLK; 1000 nM
kinases (468) [16] = molecular target: kinases (468) (Homo sapiens, UniProt Q8TDR2); details: kinase STK35 (Entrez STK35); compound concentration 1000 nM
kinases (468) [17] = molecular target: kinases (468) (Homo sapiens, UniProt O14757); details: CHEK1; 1000 nM
kinases (468) [18] = molecular target: kinases (468) (Homo sapiens, UniProt P50613); details: CDK7; 1000 nM
kinases (468) [19] = molecular target: kinases (468) (Homo sapiens, UniProt Q59H18); details: kinase TNNI3K (Entrez TNNI3K); compound concentration 1000 nM
kinases (468) [20] = molecular target: kinases (468) (Homo sapiens, UniProt Q13555); details: CAMK2G; 1000 nM
kinases (468) [21] = molecular target: kinases (468) (Homo sapiens, UniProt Q06418); details: kinase TYRO3 (Entrez TYRO3); compound concentration 1000 nM
kinases (468) [22] = molecular target: kinases (468) (Homo sapiens, UniProt P04049); details: RAF1; 1000 nM
kinases (468) [23] = molecular target: kinases (468) (Homo sapiens, UniProt P22694); details: PKAC-beta (PRKACB); 1000 nM
kinases (468) [24] = molecular target: kinases (468) (Homo sapiens, UniProt O14976); details: GAK; 1000 nM
kinases (468) [25] = molecular target: kinases (468) (Homo sapiens, UniProt O95382); details: ASK2 (MAP3K6); 1000 nM
kinases (468) [26] = molecular target: kinases (468) (Homo sapiens, UniProt P00533, DEL752-759); details: EGFR(S752-I759del); 1000 nM
kinases (468) [27] = molecular target: kinases (468) (Homo sapiens, UniProt P51617); details: IRAK1; 1000 nM
kinases (468) [28] = molecular target: kinases (468) (Homo sapiens, UniProt Q14012); details: CAMK1; 1000 nM
kinases (468) [29] = molecular target: kinases (468) (Homo sapiens, UniProt P24941); details: CDK2; 1000 nM
kinases (468) [30] = molecular target: kinases (468) (Homo sapiens, UniProt P09769); details: FGR; 1000 nM
kinases (468) [31] = molecular target: kinases (468) (Homo sapiens, UniProt O95819); details: MAP4K4; 1000 nM
kinases (468) [32] = molecular target: kinases (468) (Homo sapiens, UniProt P48736); details: PIK3CG; 1000 nM
kinases (468) [33] = molecular target: kinases (468) (Homo sapiens, UniProt Q13557); details: CAMK2D; 1000 nM
kinases (468) [34] = molecular target: kinases (468) (Homo sapiens, UniProt Q9P286); details: PAK7; 1000 nM
kinases (468) [35] = molecular target: kinases (468) (Homo sapiens, UniProt P30530); details: AXL; 1000 nM

Chain of kinases (468) (Homo sapiens, UniProt P10721) (P10721 26-976): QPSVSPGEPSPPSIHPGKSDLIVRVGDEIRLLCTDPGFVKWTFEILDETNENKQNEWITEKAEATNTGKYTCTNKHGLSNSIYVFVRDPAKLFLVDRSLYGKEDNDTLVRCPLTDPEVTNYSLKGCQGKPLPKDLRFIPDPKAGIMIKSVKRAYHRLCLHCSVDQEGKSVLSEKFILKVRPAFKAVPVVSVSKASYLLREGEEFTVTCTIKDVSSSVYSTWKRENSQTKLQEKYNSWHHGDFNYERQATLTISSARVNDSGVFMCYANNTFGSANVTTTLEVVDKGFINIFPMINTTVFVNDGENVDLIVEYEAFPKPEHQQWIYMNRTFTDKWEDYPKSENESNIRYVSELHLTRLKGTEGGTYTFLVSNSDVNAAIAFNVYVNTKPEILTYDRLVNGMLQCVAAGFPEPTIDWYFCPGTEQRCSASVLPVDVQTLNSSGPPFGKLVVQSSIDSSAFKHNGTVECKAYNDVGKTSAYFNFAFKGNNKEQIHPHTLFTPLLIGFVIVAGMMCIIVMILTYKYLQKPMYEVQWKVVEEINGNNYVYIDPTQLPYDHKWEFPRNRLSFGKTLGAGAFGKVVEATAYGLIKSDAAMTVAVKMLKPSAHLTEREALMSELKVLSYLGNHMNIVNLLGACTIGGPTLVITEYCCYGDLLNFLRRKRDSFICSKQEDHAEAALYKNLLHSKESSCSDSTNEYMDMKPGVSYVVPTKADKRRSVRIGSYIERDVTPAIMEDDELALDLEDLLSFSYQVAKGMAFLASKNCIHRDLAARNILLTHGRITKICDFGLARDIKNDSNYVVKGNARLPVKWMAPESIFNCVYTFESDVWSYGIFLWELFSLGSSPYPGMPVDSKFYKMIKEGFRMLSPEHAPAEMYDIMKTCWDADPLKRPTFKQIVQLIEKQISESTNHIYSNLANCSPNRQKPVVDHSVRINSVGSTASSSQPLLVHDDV
Chain of kinases (468) (Homo sapiens, UniProt O95819) (O95819 whole entry): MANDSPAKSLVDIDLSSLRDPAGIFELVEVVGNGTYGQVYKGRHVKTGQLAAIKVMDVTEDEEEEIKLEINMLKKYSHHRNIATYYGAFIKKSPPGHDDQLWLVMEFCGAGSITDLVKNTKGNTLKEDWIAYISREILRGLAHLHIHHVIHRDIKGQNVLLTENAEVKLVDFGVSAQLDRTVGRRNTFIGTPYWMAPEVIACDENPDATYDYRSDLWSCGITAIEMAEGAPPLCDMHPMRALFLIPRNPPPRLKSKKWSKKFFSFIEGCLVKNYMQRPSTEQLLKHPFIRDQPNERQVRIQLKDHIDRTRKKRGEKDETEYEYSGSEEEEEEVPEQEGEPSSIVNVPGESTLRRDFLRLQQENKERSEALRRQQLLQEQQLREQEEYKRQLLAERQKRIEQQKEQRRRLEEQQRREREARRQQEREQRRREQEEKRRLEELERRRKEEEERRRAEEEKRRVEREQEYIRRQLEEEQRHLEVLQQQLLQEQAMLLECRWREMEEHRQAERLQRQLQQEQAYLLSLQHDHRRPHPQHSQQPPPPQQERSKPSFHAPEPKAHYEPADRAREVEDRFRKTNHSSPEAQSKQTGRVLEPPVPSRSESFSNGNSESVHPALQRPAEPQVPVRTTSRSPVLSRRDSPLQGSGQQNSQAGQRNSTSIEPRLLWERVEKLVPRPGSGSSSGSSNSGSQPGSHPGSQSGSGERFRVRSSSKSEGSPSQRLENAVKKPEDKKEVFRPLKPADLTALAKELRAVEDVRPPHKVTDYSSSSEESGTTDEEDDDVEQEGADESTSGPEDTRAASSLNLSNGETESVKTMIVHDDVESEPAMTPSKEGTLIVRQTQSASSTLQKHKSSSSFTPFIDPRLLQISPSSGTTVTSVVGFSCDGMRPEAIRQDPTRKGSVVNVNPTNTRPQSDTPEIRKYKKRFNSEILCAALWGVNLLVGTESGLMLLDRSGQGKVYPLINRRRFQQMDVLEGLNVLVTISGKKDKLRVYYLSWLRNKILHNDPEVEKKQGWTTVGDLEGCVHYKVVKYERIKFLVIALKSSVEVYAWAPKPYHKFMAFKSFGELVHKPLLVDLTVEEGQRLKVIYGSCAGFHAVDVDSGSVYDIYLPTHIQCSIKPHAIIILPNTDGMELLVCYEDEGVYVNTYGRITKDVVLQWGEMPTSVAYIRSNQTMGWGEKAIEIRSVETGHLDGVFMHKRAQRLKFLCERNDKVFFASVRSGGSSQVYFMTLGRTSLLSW
Chain of kinases (468) (Homo sapiens, UniProt Q06418) (Q06418 41-890): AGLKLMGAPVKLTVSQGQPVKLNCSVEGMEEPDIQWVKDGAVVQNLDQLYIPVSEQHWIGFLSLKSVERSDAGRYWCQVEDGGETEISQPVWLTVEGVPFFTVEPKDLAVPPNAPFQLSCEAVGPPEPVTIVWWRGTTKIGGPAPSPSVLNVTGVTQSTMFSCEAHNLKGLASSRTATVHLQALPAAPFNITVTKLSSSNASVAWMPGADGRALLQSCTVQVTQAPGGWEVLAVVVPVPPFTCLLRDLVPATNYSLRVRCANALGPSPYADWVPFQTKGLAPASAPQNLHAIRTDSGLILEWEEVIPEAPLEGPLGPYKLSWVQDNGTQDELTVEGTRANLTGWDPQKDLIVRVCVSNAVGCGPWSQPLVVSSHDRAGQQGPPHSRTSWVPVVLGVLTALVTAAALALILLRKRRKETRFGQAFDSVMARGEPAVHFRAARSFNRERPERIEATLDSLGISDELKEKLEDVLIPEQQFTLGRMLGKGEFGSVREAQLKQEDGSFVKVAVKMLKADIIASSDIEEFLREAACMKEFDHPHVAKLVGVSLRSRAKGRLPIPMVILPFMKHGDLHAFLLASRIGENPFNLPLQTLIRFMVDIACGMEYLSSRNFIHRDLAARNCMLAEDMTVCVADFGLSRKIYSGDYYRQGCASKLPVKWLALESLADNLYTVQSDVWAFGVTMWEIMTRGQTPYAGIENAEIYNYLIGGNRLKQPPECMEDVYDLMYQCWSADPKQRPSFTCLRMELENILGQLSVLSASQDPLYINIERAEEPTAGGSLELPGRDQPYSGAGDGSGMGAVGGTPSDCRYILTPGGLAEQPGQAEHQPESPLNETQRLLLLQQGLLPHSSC
Chain of kinases (468) (Homo sapiens, UniProt Q59H18) (Q59H18 whole entry): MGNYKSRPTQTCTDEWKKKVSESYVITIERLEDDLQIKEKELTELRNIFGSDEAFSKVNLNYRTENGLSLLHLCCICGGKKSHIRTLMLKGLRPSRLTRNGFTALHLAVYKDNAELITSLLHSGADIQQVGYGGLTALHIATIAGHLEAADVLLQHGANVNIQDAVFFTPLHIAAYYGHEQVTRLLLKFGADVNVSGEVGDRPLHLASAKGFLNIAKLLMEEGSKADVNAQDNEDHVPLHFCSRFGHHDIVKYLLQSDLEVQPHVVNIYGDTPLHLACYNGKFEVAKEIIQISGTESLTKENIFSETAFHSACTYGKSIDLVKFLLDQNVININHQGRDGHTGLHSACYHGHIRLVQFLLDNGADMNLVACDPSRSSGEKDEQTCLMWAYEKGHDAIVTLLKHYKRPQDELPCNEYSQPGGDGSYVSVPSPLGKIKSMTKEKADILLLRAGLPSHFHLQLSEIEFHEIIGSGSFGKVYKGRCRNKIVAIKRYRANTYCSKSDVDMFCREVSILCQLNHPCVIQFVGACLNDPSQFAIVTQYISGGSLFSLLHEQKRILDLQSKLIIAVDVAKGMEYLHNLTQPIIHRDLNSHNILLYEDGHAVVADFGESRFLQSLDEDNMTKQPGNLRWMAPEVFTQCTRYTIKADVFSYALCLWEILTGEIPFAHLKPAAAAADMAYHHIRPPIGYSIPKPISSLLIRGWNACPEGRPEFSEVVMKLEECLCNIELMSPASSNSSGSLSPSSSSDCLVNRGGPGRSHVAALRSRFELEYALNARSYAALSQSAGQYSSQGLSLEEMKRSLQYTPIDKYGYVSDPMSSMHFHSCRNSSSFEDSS
Chain of kinases (468) (Homo sapiens, UniProt P48736) (P48736 whole entry): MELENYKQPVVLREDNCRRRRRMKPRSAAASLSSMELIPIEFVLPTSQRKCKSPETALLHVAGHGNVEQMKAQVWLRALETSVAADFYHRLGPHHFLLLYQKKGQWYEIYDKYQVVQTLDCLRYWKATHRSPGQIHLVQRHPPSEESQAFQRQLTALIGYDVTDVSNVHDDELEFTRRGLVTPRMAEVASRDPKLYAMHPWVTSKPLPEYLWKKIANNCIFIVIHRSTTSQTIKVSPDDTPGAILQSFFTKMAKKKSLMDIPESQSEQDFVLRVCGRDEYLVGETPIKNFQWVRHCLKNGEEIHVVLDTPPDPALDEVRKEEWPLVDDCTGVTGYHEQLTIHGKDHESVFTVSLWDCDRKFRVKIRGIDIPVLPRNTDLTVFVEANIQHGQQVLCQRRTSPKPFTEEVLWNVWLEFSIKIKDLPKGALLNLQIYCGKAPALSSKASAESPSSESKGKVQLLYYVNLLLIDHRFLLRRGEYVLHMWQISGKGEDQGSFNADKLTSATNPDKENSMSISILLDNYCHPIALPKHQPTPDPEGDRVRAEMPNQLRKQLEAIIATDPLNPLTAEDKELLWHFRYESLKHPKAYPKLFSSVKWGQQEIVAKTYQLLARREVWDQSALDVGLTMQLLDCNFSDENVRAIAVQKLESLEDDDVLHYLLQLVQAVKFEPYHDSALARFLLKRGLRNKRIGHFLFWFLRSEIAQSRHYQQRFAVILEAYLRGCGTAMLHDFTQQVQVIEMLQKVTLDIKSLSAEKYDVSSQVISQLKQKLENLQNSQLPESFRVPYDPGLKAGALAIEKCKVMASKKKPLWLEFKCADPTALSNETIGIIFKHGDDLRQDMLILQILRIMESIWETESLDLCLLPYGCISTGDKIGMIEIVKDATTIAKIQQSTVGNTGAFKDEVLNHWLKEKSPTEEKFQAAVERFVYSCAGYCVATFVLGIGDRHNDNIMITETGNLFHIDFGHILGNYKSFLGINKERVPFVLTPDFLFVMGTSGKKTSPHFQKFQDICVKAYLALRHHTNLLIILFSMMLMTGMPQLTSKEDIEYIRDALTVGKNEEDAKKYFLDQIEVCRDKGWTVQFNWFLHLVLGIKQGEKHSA

SMILES: C[C@H]1C[C@@H](O)CN(c2ncc(Cl)c(Nc3ccc4c(c3)c3c(c(=O)n4C)OCC(F)(F)[C@H](C4CC4)N3)n2)C1 [CCT373566_9A]
- Percent Control (kinases (468) [1]): 83%
- Percent Control (kinases (468) [2]): 98% and 100% and 83%
- Percent Control (kinases (468) [2]; FLT3(ITD), 1000 nM): 99%
- Percent Control (kinases (468) [2]; FLT3(ITD,D835V), 1000 nM): 75%
- Percent Control (kinases (468) [3]): 97%
- Percent Control (kinases (468) [4]): 90%
- Percent Control (kinases (468) [5]): 77%
- Percent Control (kinases (468) [6]): 98%
- Percent Control (kinases (468) [7]): 100%
- Percent Control (kinases (468) [8]; KIT-autoinhibited): 90%
- Percent Control (kinases (468) [8]; KIT): 100%
- Percent Control (kinases (468) [9]): 100%
- Percent Control (kinases (468) [10]): 100%
- Percent Control (kinases (468) [11]): 90%
- Percent Control (kinases (468) [12]): 100%
- Percent Control (kinases (468) [13]): 100%
- Percent Control (kinases (468) [14]): 100%
- Percent Control (kinases (468) [15]): 99%
- Percent Control (kinases (468) [16]): 99%
- Percent Control (kinases (468) [17]): 100%
- Percent Control (kinases (468) [18]): 93%
- Percent Control (kinases (468) [19]): 100%
- Percent Control (kinases (468) [20]): 96%
- Percent Control (kinases (468) [21]): 100%
- Percent Control (kinases (468) [22]): 92%
- Percent Control (kinases (468) [23]): 80%
- Percent Control (kinases (468) [24]): 86%
- Percent Control (kinases (468) [25]): 98%
- Percent Control (kinases (468) [26]): 86%
- Percent Control (kinases (468) [27]): 77%
- Percent Control (kinases (468) [28]): 89%
- Percent Control (kinases (468) [29]): 96%
- Percent Control (kinases (468) [30]): 100%
- Percent Control (kinases (468) [31]): 87%
- Percent Control (kinases (468) [32]): 98%
- Percent Control (kinases (468) [33]): 88%
- Percent Control (kinases (468) [34]): 96%
- Percent Control (kinases (468) [35]): 95%
